# Assay results as given in patent US20200199530A1, “METHODS OF DIFFERENTIATING STEM CELL-DERIVED ECTODERMAL LINEAGE PRECURSORS” (MEMORIAL SLOAN-KETTERING CANCER CENTER, priority 2017, published 2020).
# Columns and labels:
# [1] = test system: human pluripotent stem cells (PAX6::H2B-GFP reporter); assay: Neuroectoderm induction in E6 media, PAX6 positive cells; format: cell-based; details: day 12 post induction, no small molecules ~40%
# Procedure: (§1) All differentiations starting from E8 were dissociated into single cells using EDTA and re-plated at high density in E8 with the ROCK inhibitor (Tocris). Cells were typically seeded at a density of 200,000 cells/cm^2 on Matrigel coated dishes. Switching from E8 to E6 triggered differentiations (i.e. d0). Neuroectoderm (NE) formation was generated by culturing the cells in E6 with 10 μM SB and 500 nM LDN until d12. Neural Crest (NC) was first treated with 10 μM SB, 600 nM CHIR and 1 ng/ml BMP4 from d0-d2. At d3, cells were maintained in 10 μM SB with 1.5 uM CHIR until d12. Lens placode was first treated with 10 μM SB and 5 ng/ml BMP4 from d0-d2. At d3, cells were maintained in 10 μM SB with 50 ng/ml FGF2 until d12. Trigeminal placode was first treated with 10 μM SB and 5 ng/ml BMP4 from d0-d2. At d2, 600 nm CHIR was added. At d3, cells were treated with 10 μM SB and 600 nM CHIR. From d4-d12, cells were treated with 10 μM SB. Finally, non-neural ectoderm (NNE) was treated with 10 μM SB, 10 μM SU5402 and 10 ng/ml BMP4 from d0-d1, and then treated with 10 μM SB and 5 ng/ml BMP4 from d2-d12.
# Neuroectoderm differentiation. Day 0 (0-24 hrs): Add E6 media containing 500 nM LDN+10 μM SB to cells. To skew the differentiation more toward an anterior neuroectoderm, add E6 media containing 500 nM LDN+10 μM SB+5 μM XAV to cells. […]
# hPSCs = assay: Tolerability of small molecules during E6-based differentiation; format: cell-based, human; details: had to be re-titrated
# [2] = test system: SIX1 placode cells (PAX3 expression); assay: Trigeminal placode induction by CHIR99021 pulse; format: cell-based, human; details: additional pulse after the placode-inducing BMP pulse
# Procedure: as §1
# Trigeminal Placode differentiation. Day 0 (0-24 hrs): Add E6 media containing 5 ng/ml BMP4+10 μM SB to cells.
# Day 1 (24-48 hrs): Change media with E6 media containing 5 ng/ml BMP4+10 μM SB to cells.
# Day 2 (48-72 hrs): Change media with E6 media containing 5 ng/ml BMP4+10 μM SB+600 nM CHIR to cells. […]
# rodent GSK3β homologs = details: cited from earlier work
# [3] = test system: hPSC differentiated towards pituitary placode; assay: Pituitary placode induction from hPSC; format: cell-based, human; details: 1 μM, with FGF8 and FGF10, day 15
# Procedure: For pituitary differentiation cells were plated at 250 000 cells/cm^2 on VTN-N coated dishes (differentiation works best in 24 well plates) in E8+10 μM Y-27632. After 24 h (day0) medium was changed to E6 supplemented with 10 μM SB431542 and 5 ng/ml BMP4 (R&D Systems). Medium was changed every day. On day 3 BMP4 was removed from the medium and cells were cultured for 1 day in E6+10 μM SB431542. For the standard differentiation conditions, on day 4 E6 was supplemented with 10 μM SB431542, 200 ng/ml SHH (R&D Systems, C25II), 100 ng/ml FGF8b (R&D Systems) and 50 ng/ml FGF10 (Peprotech Inc.). For some experiments SHH was replaced by 1 μM purmorphamine (Stemgent) or 1 μM SAG (Stemcell Technologies). From now on medium volume was doubled and cells were feed every other day until day 15. […] Purified cells were then plated as droplets (50 000 cells/10 μl drop) in E6 supplemented with 10 μM Y-27632, 200 ng/ml SHH, 100 ng/ml FGF8b and 50 ng/ml FGF10 on polyornithine/laminin/fibronectin-coated plates. After 24 h medium was changed to E6 containing SHH, FGF8 and FGF10 until day 30. Medium was changed every other day. […] For quantitative RT PCR the present example used the SSoFast EvaGreen Mix (BioRad) in combination with QuantiTect primer assays (Qiagen) on a BioRad CFX96 Thermal Cycler. […] Results are calculated using the ΔΔCt method (Livak and Schmittgen, 2001).
smiles,measurement,setting,value
"NC(=O)c1ccc(-c2nc(-c3ccc4c(c3)OCO4)c(-c3ccccn3)[nH]2)cc1 [SB431542, 4-[4-(1,3-benzodioxol-5-yl)-5-(2-pyridinyl)-1H-imidazol-2-yl]-benzamide]",percentage of cells expressing PAX6,[1],~90%
"Cc1c[nH]c(-c2cnc(NCCNc3ccc(C#N)cn3)nc2-c2ccc(Cl)cc2Cl)n1 [CHIR99021, 6-(2-(4-(2,4-dichlorophenyl)-5-(4-methyl-1H-imidazol-2-yl)pyrimidin-2-ylamino)ethylamino)nicotinonitrile]",cell killing at the original (KSR protocol) concentration,hPSCs,effectively killed the cells
same,PAX3 expression in placode cells,[2],capable of triggering PAX3+ and PAX6− expression
same,IC50 values against rodent GSK3β homologs,rodent GSK3β homologs,nanomolar
c1ccc2c(Oc3nc(Nc4ccc(N5CCOCC5)cc4)c4ncn(C5CCCCC5)c4n3)cccc2c1 [purmorphamine],replacement of recombinant SHH in pituitary induction,[3],can be replaced
CNC1CCC(N(Cc2cccc(-c3ccncc3)c2)C(=O)c2sc3ccccc3c2Cl)CC1 (stereo not drawn) [SAG],replacement of recombinant SHH in pituitary induction,[3],can be replaced
